# Laboratory results from patent US6391339B1, “Use of oligosaccharide for preventing blood clotting in extracorporeal blood circuits” (Akzo Nobel N.V., priority 1997, dated 2002).
# Tested on: patients undergoing chronic intermittent haemodialysis
# Conditions: 12 haemodialysis patients; half an hour before the end of the last dialysis
# Method: The study consisted of 2 phases (block A and block B). In block A, 10 mg of Org 31540/SR 90107 A was administered. Thereafter, in block B, 8, 6, and 4 mg of Org 31540/SR 90107 A were used.
# Medication was given as an intravenous bolus predialysis for 1 dialysis each week. Efficacy was assessed by determining patency of the dialyzer, buffer and bubble chamber, every hour during dialysis by visual examination and by blood sampling of specific coagualtion, heamatologic and biochemical parameters. Anti-Xa plasma samples, to determine pharmacokinetics, were taken every hour during dialysis and 1 hour after dialysis and daily for 3 days post-dialysis. Safety was assessed by evaluating major and minor bleeding complications each dialysis.
structure (smiles),measurement,value
"CO[C@H]1O[C@H](COS(=O)(=O)O)[C@@H](O[C@@H]2O[C@@H](C(=O)O)[C@@H](O[C@H]3O[C@H](COS(=O)(=O)O)[C@@H](O[C@@H]4O[C@H](C(=O)O)[C@@H](O[C@H]5O[C@H](COS(=O)(=O)O)[C@@H](O)[C@H](O)[C@H]5NS(=O)(=O)O)[C@H](O)[C@H]4O)[C@H](OS(=O)(=O)O)[C@H]3NS(=O)(=O)O)[C@H](O)[C@H]2OS(=O)(=O)O)[C@H](O)[C@H]1NS(=O)(=O)O [Org 31540/SR 90107 A, methyl O—(2-deoxy-2-sulphoamino-6-O-suplho-α-D-glucopyranosyl)-(1→4)—O—(β-D-glucopyranosyluronic acid)-(1→4)—O—(2-deoxy-2-sulphoamino-3,6-di-O-sulpho-α-D-glucopyranosyl)-(1→4)—O—(2-O-sulpho-α-L-idopyranosyluronic acid)-(1→4)-2-deoxy-2-sulphoamino-6-O-sulpho-α-D-glucopyranoside]",clot in the buffer chamber making dialysis impossible,Only in one patient
